Measurements from patent US12351836B2, “Microhomology mediated repair of microduplication gene mutations” (UNIVERSITY OF MASSACHUSETTS, priority 2018, dated 2025).

Target: PARP-1 (Homo sapiens, UniProt P09874)
Test: PARP-1 inhibition by rucaparib: MMEJ-based repair at the HPS1 locus in HPS1 B-LCL cells treated with SpyCas9 RNP
Type: cell-based
Text: To investigate whether nuclease-mediated collapse of a microduplication occurs via the MMEJ pathway, a DNA repair factor (PARP-1) that regulates DSB flux through this pathway was inhibited. PARP-1 influences the repair of a DSB through resection-dependent DNA repair pathways, such as MMEJ^3,16, which are in competition with the non-homologous end joining pathway (NHEJ) for DSB repair^17. Inhibition of the catalytic activity of PARP-1 by rucaparib reduces DSB flux through the MMEJ pathway, resulting in a decrease in microhomology-based deletion products in the resulting repair events^18. See, FIG. 18A. Patient-derived HPS1 B-LCL cells were treated with 10 µM or 20 μM rucaparib before and after treatment with SpyCas9 RNP to suppress MMEJ-mediated repair of DSBs. See, FIG. 12A. […] See, FIG. 12B. […] See, FIG. 12B-12D. […] See, FIG. 18.
For the PARP-1 inhibition experiments, 300,000 HPS1 patient-derived B-LCL cells were treated with 10 μM or 20 μM rucaparib camsylate (Sigma-Aldrich PZ0036) in standard growth medium for 24 h. Treated cells were electroporated with SpyCas9 RNPs following previously described protocol. Following another 24 h incubation in rucaparib-containing medium, cells were resuspended in PARP-1 inhibitor-free medium and harvested for analysis after 7 days.
The construction of the UMI-based library used a linear amplification step to incorporate UMIs within the amplicons from the target locus^15. HPS1 B-LCL cells and HEK293 Ts were harvested following nuclease treatment for genomic DNA extraction using the GenElute Mammalian Genomic DNA Miniprep Kit (Sigma GIN350).
The analysis of the UMI-tagged deep sequencing reads was adapted from a previous protocol^15. Initially, BWA (version 0.7.5) and SAMtools (version 0.1.19) were used to align each group of filtered merged-read pairs to a corresponding reference sequence, ignoring the unique molecular barcodes. Next, a custom Python and PySAM script was used to process mapped reads into counts of UMI-labelled reads for each target. The mapped reads were filtered by requiring a mapping value (MAPQ) larger than 30. […]

Chain of PARP-1 (P09874 whole entry): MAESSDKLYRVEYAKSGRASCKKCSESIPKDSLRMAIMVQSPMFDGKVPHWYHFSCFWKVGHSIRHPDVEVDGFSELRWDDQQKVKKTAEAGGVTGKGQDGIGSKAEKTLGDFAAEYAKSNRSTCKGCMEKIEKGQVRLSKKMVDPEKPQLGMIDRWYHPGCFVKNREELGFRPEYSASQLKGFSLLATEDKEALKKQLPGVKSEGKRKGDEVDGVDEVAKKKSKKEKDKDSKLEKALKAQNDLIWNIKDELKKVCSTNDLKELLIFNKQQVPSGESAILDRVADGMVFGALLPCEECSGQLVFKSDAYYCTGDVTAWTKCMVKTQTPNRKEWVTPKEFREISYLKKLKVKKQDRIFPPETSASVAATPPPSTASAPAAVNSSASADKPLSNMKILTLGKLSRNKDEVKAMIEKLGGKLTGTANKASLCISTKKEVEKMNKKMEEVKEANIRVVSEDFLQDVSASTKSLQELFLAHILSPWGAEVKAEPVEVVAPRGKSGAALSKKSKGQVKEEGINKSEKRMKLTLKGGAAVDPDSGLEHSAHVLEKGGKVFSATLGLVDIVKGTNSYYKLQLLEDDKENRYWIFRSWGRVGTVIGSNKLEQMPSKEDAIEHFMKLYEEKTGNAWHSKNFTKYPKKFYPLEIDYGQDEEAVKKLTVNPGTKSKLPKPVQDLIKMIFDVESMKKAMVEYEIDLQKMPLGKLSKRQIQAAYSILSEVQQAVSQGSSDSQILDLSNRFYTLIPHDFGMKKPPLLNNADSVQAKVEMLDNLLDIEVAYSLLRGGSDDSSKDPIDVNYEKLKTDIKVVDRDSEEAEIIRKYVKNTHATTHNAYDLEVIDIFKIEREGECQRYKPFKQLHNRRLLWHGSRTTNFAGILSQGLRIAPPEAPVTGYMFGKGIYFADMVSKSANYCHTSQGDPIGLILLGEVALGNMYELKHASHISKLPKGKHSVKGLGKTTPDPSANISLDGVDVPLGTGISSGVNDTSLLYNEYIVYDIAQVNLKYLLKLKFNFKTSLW

SMILES: CNCc1ccc(-c2[nH]c3cc(F)cc4c3c2CCNC4=O)cc1 [rucaparib, rucaparib camsylate]
- 16-bp deletion product (10 μM rucaparib 24 h before and after SpyCas9 RNP): around 15%
- 16-bp deletion product (20 μM rucaparib 24 h before and after SpyCas9 RNP): ~6%
- editing rates at the HPS1 locus upon rucaparib treatment (10 or 20 μM rucaparib): overall reduction in editing rates
